Eight compounds from paper PMC5014220, “An α‐Helix‐Mimicking 12,13‐Helix: Designed α/β/γ‐Foldamers as Selective Inhibitors of Protein–Protein Interactions” (Angewandte Chemie (International Ed. in English), 2016) can be followed below.

One may read the IC50 as the point on the concentration scale where inhibition reaches its midpoint. Read a low IC50 as greater potency.

Data set [1] deals with T1, p53/hDM2 interaction (FITC–p53_15–31 / hDM2(17-126) L33E) (Homo sapiens, UniProt Q00987, L33E).
T1 construct: hDM2(17-126)
Kind of data set: Fluorescence anisotropy (FA) competition assay against p53/hDM2. Format: binding. Particulars: for Displacement of FITC–p53_15–31 from hDM2 (in words): same conditions, lower asymptote of the competition curve not achieved at higher concentrations, IC50 ND; for IC50: 50 nM FITC–p53(15-31), 150 nM hDM2(17-126) L33E, 40 mM phosphate buffer pH 7.5, 200 mM NaCl, 0.02 mg mL−1 BSA, 5 % DMSO, read after 1 h at room temperature, triplicate, fit ± error. (In general: Polarisation of emitted light reports the rotation of a fluorescent probe.)

The test system of a further data set is α‐chymotrypsin (α‐CT). The data set can be described thus: Proteolytic stability with α-chymotrypsin (HPLC). Format: in vitro ADME. To be noted: α-chymotrypsin type II from bovine pancreas, 1:10000 enzyme/substrate; peptide 200 μM stock in PBS pH 7.50, 2% DMSO; followed by analytical HPLC; fold versus p53_15–31. The text has this: The proteolytic stability of α/β/γ‐peptides 1–8 was investigated using α‐chymotrypsin (α‐CT) as a representative protease, since this enzyme selectively hydrolyses the amide bond on the C‐terminal side of hydrophobic residues such as Leu, Trp, and Phe, all of which are present in the α/β/γ‐peptide sequences. The p53_15–31 peptide was also studied for comparison (see the Supporting Information). […] For the latter four peptides, the proteolytic activity corresponded to methyl ester hydrolysis of the C‐terminal Leu residue; in all eight cases, therefore, the hexapeptide core remained largely intact for the duration of the experiments.
IV. Proteolysis studies of peptides 1-8
α-Chymotrypsin Type II from bovine pancreas (lyophilized powder, MW = 25 kDa, ≥ 40 units/mg protein) was purchased from Sigma-Aldrich and used without further purification.
α/β/γ-Peptides and p53(15-31) peptide (200 µM stock in PBS buffer pH 7.50, 2% DMSO) were treated with α-Chymotrypsin Type II from bovine pancreas (0.02 µM stock solutions in PBS buffer pH 7.50) in a 1:10000 enzyme/substrate ratio. The degradation was followed with analytical HPLC (Ascentis® Express Peptide Column, injection volume: 20 µL, acetonitrile/water (0.1% TFA) 5-95% gradient) and the data was analysed to extract kinetic values.
1. HPLC traces of the positive control (native p53) in presence of α-Chymotrypsin
(1 picture or pasted object on this page, not shown here)

Data set [2] addresses T2, FITC–NOXA B/Mcl‐1 protein–protein interaction (Homo sapiens, UniProt Q07820).
T2 construct: Mcl-1(172-327)
Kind of data set: FA competition assay, FITC–NOXA B/Mcl-1. Format: binding. Particulars: 50 nM FITC-NOXA B(68-87), 150 nM Mcl-1(172-327), top concentration 222 μM, 1 h room temperature, triplicate.

Data set [3] has as its target BODIPY–BAK/Bcl‐xL protein–protein interaction (Homo sapiens, UniProt Q07817). Kind of data set: FA competition assay, BODIPY–BAK/Bcl-xL. Format: binding. To be noted: 50 nM BODIPY-Bak, 150 nM Bcl-xL, top concentration 222 μM, 1 h room temperature, triplicate.

For the compound `COC(=O)CC[C@H](CC(C)C)NC(=O)[C@H]1CC[C@@H]1NC(=O)CC[C@H](Cc1c[nH]c2ccccc12)NC(=O)[C@H]1CC[C@@H]1NC(=O)CC[C@@H](C)NC(=O)[C@H](Cc1ccccc1)NC(C)=O` [Peptide 6], in data set [1], the “Displacement of FITC–p53_15–31 from hDM2 (in words)” value is listed as “effectively displaced FITC–p53_15–31 at micromolar concentrations”. The “Resistance to α‐CT relative to native p53_15–31” value with α‐chymotrypsin (α‐CT) is ≥ 32 fold.
As to `COC(=O)CC[C@H](CC(C)C)NC(=O)[C@H]1CC[C@@H]1NC(=O)CC[C@H](Cc1ccccc1)NC(=O)[C@H]1CC[C@@H]1NC(=O)CC[C@@H](C)NC(=O)[C@H](Cc1ccccc1)NC(=O)OC(C)(C)C` [Peptide 4], the IC50 in data set [1] is > 100 µM. Further, the “Resistance to α‐CT relative to native p53_15–31” value with α‐chymotrypsin (α‐CT) is recorded as ≥ 32 fold.
In turn, `COC(=O)[C@H](CC(C)C)NC(=O)[C@H]1CC[C@@H]1NC(=O)CC[C@H](Cc1c[nH]c2ccccc12)NC(=O)[C@H]1CC[C@@H]1NC(=O)CC[C@@H](C)NC(=O)[C@H](Cc1ccccc1)NC(=O)OC(C)(C)C` [Peptide 1] showed a concentration for half-maximal inhibition (IC50) in data set [1] of 57 ± 22 µM. The “Resistance to α‐CT relative to native p53_15–31” value with α‐chymotrypsin (α‐CT) is reported as ≥ 10 fold. Moreover, the “Inhibitory activity on FITC–NOXA B/Mcl‐1 interaction” value in data set [2] is “no inhibitory activity”. The “Inhibitory activity on BODIPY–BAK/Bcl‐xL interaction” value in data set [3] is “no inhibitory activity”.
With `COC(=O)[C@H](CC(C)C)NC(=O)[C@H]1CC[C@@H]1NC(=O)CC[C@H](Cc1ccccc1)NC(=O)[C@H]1CC[C@@H]1NC(=O)CC[C@@H](C)NC(=O)[C@H](Cc1ccccc1)NC(=O)OC(C)(C)C` [Peptide 3], the IC50 in data set [1] is > 100 µM. Moreover, the “Resistance to α‐CT relative to native p53_15–31” value in the data set on α‐chymotrypsin (α‐CT) is reported as ≥ 10 fold.
Consider `COC(=O)CC[C@H](CC(C)C)NC(=O)[C@H]1CC[C@@H]1NC(=O)CC[C@H](Cc1ccccc1)NC(=O)[C@H]1CC[C@@H]1NC(=O)CC[C@@H](C)NC(=O)[C@H](Cc1ccccc1)NC(C)=O` [Peptide 8], for which the “Displacement of FITC–p53_15–31 from hDM2 (in words)” value in data set [1] is recorded as “effectively displaced FITC–p53_15–31 at micromolar concentrations”.
On to `COC(=O)CC[C@H](CC(C)C)NC(=O)[C@H]1CC[C@@H]1NC(=O)CC[C@H](Cc1c[nH]c2ccccc12)NC(=O)[C@H]1CC[C@@H]1NC(=O)CC[C@@H](C)NC(=O)[C@H](Cc1ccccc1)NC(=O)OC(C)(C)C` [Peptide 2], for which, in data set [1], the IC50 is 15 ± 2 µM. In data set [2], the “Inhibitory activity on FITC–NOXA B/Mcl‐1 interaction” value is given as “no inhibitory activity”. In data set [3], the “Inhibitory activity on BODIPY–BAK/Bcl‐xL interaction” value is on record as “no inhibitory activity”.
Consider `COC(=O)[C@H](CC(C)C)NC(=O)[C@H]1CC[C@@H]1NC(=O)CC[C@H](Cc1ccccc1)NC(=O)[C@H]1CC[C@@H]1NC(=O)CC[C@@H](C)NC(=O)[C@H](Cc1ccccc1)NC(C)=O` [Peptide 7], for which, in data set [1], the IC50 is > 100 µM. Further, the “Resistance to α‐CT relative to native p53_15–31” value in the data set on α‐chymotrypsin (α‐CT) is ≥ 10 fold.
With `COC(=O)[C@H](CC(C)C)NC(=O)[C@H]1CC[C@@H]1NC(=O)CC[C@H](Cc1c[nH]c2ccccc12)NC(=O)[C@H]1CC[C@@H]1NC(=O)CC[C@@H](C)NC(=O)[C@H](Cc1ccccc1)NC(C)=O` [Peptide 5], in data set [1], the IC50 was > 100 µM. In addition, in the data set with α‐chymotrypsin (α‐CT), the “Resistance to α‐CT relative to native p53_15–31” value is ≥ 10 fold.
